Laboratory results as given in patent US7964613B2 (Asahi Kasei Pharma Corporation, priority 2007, dated 2011).

Columns and labels:
[1] = tested on: TNF-α production; test: Inhibitory effect on TNF-α production in mice (LPS); type: in vivo, BALB/c mice; details: Mus musculus, 1.5 h; oral administration of 30 mg/kg, LPS 5 μg i.p. 60 minutes later, plasma after 90 minutes; read-out: TNF-α production suppressing action
Experimental: BALB/c mice (Japan CRJ, famale) were used as experimental animals. Each test compound was dissolved in distilled water at a concentration suitable for the examination. The weight of each mouse was measured, a test compound solution was orally administered in a volume corresponding to 10 ml/kg, and only distilled water was administered to the control group. Each group consisted of five to seven animals. LPS was dissolved in physiological saline, and intraperitoneally administered to each mouse in an amount of 5 μg. The test compound was administered first, and LPS (lipopolysaccharide, Sigma) was administered 60 minutes later. After 90 minutes, blood was collected from the abdominal large vein in the presence of heparin, and plasma was obtained by centrifugation. TNF-α content in the plasma was measured by using the ELISA method.

[2] = molecular target: T1, human ROCK1 (Homo sapiens, UniProt Q13464); test: Measurement of Rho kinase inhibitory activity (ELISA of MBS phosphorylation); type: biochemical; details: human ROCK1, MBS substrate, 100 μM ATP, 30° C. for 10 minutes
T1 construct: His tag (N); host or cells: insect cells (Sf9)
Experimental: In this test, human ROCK1 was used as Rho kinase, MBS (myosin binding subunit, subunit constituting myosin phosphatase) was used as the substrate of Rho kinase, and an anti-phosphorylated MBS antibody was used for detection of phosphorylation. The activity for inhibiting Rho kinase was determined by measuring phosphorylation of MBS by the Rho kinase by ELISA in the presence of an appropriately diluted test compound. As the Rho kinase used, a recombinant protein (N-terminal His-tagged recombinant human ROCK1 residues (1Met-[…])) was used, which was produced in insect cells (Sf9) using a sequence (1-727), of which activity was confirmed in the paper of Ishizaki et al. (Ishizaki, T. et al., FEBS Letters, 404, pp 118-124, 1997), based on the sequence of human ROCK1 (p 160 ROCK) described in the report of Ishizaki et al. (Ishizaki, T. et al., EMBO J., 15, pp 1885-1893, 1996). Further, as the MBS protein and anti-phosphorylated MBS antibody, those prepared according to the method described in the paper of Ito et al. (Ito, K et al., J. Physiol., 546, pp 823-836, 2003) were used.
A solution of MBS (Asahi Kasei Pharma, lot No, 040814n7-10) diluted with PBS to an appropriate concentration was added to an ELISA plate (Maxisorp, Nunc), and left, stand overnight at 4° C., and then the wells were washed twice with a washing solution (WB, washing buffer, 0.1% Tween 20/PBS). To the wells were added 1% bovine serum albumin (Sigma)/PBS, and left for 1 to 3 hours, and then the wells were washed 5 times with WB to prepare a substrate-immobilized plate. Onto this plate, a reaction mixture (5 mM MgSO4/0.1 M NaCl/20 mM HEPES (pH 7.5)/100 μM ATP/5 mM DTT), a test compound, and appropriately diluted human ROCK1 (Asahi Kasei Pharma, lot No, 030126.120-22) were added, and then reacted at 30° C. for 10 minutes. Then, 0.2 M EDTA (pH 7.5) was added to terminate the reaction, and the wells were washed 5 times with WB. A rabbit anti-phosphorylated MBS antibody solution (Asahi Kasei Pharma, lot No, 122676431) diluted 10,000 times with WB containing 1% bovine serum albumin was added to the wells, and after the reaction for 1 hour, the wells were washed 5 times with WB. Goat anti-rabbit IgG-HRP (Zymed) diluted 1,000 times with WB containing 1% bovine serum albumin was added to the wells as the secondary detection antibody and the mixture was reacted for 1 hour, and then the wells were washed 5 times with WB. An OPD (o-phenylenediamine) solution (1 mg/ml OPD, Sigma), 5.1 g/l of citric acid monohydrate, and 18.4 g/l of Na2HPO4.12H2O were added to the wells to develop color, […] was added 5 minutes later to terminate the color development, and absorbance was measured at 490 nm.
The inhibition ratio was calculated as follows. Inhibition ratio(%)=[…]
Further, the inhibition ratio was calculated with changing the concentration of the test compound, and a compound concentration providing an inhibition ratio of 50% was obtained as IC50.

[3] = tested on: rabbit normal intraocular pressure; test: Intraocular pressure reducing action; type: in vivo, Japanese white rabbit; details: Oryctolagus cuniculus, topical, read-out: intraocular pressure reducing degree; for inhibition in vivo at 3000 µM: 3 mM aqueous solution, 50 μl to the left eye, max IOP reduction (2, 4, 6 hours) / value immediately before administration
How it was run: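 Japanese white rabbits (~2 kg) under topical anaesthesia received 50 μl of a 3 mM aqueous test solution in the left eye, right eye untreated. IOP read by tonometer before and at 2, 4, 6 h; maximal left–right difference divided by pre-dose IOP ×100 gives % reduction.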

T1 sequence (Q13464 1-727): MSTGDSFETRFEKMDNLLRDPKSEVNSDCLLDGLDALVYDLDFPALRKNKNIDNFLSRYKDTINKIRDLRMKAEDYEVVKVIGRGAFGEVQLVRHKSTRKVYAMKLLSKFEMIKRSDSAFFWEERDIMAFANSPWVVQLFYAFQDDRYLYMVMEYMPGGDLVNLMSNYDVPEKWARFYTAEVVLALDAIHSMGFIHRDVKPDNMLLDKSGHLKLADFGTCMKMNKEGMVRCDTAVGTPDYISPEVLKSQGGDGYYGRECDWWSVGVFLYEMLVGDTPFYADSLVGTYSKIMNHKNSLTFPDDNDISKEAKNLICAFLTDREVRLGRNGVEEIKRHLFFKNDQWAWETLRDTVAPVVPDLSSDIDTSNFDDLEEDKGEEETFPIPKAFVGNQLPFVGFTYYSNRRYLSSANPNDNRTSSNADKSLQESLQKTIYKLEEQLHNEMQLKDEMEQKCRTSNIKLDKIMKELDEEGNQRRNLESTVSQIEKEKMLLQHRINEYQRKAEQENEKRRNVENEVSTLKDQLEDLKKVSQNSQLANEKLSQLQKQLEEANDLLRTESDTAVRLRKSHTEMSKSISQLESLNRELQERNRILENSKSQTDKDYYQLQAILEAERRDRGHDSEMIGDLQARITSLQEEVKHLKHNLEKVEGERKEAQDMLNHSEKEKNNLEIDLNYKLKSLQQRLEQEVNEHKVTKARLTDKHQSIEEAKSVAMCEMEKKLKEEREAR

Cc1ccc(CN[C@H]2CCN(S(=O)(=O)c3cccc4cncc(C)c34)C2)cc1 [Example 8-12] gave an inhibition in vivo at 30 mg/kg [1] of at least 50%, an IC50 [2] of under 1 µM and an inhibition in vivo at 3000 µM [3] of at least 20%.

With Cc1ccc(CN[C@H]2CCN(S(=O)(=O)c3cccc4cncc(Br)c34)C2)cc1 [Example 1-12] the inhibition in vivo at 30 mg/kg [1] was at least 30% and the IC50 [2] was under 1 µM.

With COCC(=O)N[C@H]1CCN(S(=O)(=O)c2cccc3cncc(Br)c23)C1 [Example 71, (S)-3-(2-Methoxyacetyl)amino-1-(4-bromo-5-isoquinolinesulfonyl)pyrrolidine] the inhibition in vivo at 30 mg/kg [1] was at least 30% and the inhibition in vivo at 3000 µM [3] was at least 20%.

Work on CN[C@H]1CCN(S(=O)(=O)c2cccc3cncc(F)c23)C1 [Example 18-3, (S)-1-(4-Fluoro-5-isoquinolinesulfonyl)-3-(methylamino)pyrrolidine] yielded an inhibition in vivo at 30 mg/kg [1] of at least 50% and an inhibition in vivo at 3000 µM [3] of at least 20%.

Compound COCC(=O)N[C@H]1CCN(S(=O)(=O)c2cccc3cncc(Cl)c23)C1 [Example 56-1, (S)-3-(2-Methoxyacetyl)amino-1-(4-chloro-5-isoquinolinesulfonyl)pyrrolidine] has an inhibition in vivo at 30 mg/kg [1] of at least 30%, an IC50 [2] of 1 to 3 µM and an inhibition in vivo at 3000 µM [3] of at least 20%.

For CN[C@H]1CCN(S(=O)(=O)c2cccc3cncc(Br)c23)C1 [Example 1-3, (S)-1-(4-Bromo-5-isoquinolinesulfonyl)-3-(methylamino)pyrrolidine], the inhibition in vivo at 30 mg/kg [1] was at least 50%, the IC50 [2] was under 1 µM and the inhibition in vivo at 3000 µM [3] was at least 20%. The inhibition in vivo at 1000 µM ([3]; test compound of 1 mM, same test as Test Example 3) was at least 20%.

CN[C@H]1CCN(S(=O)(=O)c2cccc3c(O)ncc(Br)c23)C1 [Example 35-1, (S)-1-(1-Hydroxy-4-bromo-5-isoquinolinesulfonyl)-3-(methylamino)pyrrolidine] showed an inhibition in vivo at 30 mg/kg [1] of at least 50%, an IC50 [2] of under 1 µM and an inhibition in vivo at 3000 µM [3] of 5 to 10%.

CN[C@H]1CCN(S(=O)(=O)c2cccc3c(O)ncc(F)c23)C1 [Example 37-1, (S)-1-(1-Hydroxy-4-fluoro-5-isoquinolinesulfonyl)-3-(methylamino)pyrrolidine] showed an inhibition in vivo at 30 mg/kg [1] of at least 30%.

Cc1cncc2cccc(S(=O)(=O)N3CC[C@H](NCC4CC4)C3)c12 [Example 8-26] gave an IC50 [2] of under 1 µM and an inhibition in vivo at 3000 µM [3] of 5 to 10%.

In the case of Cc1cncc2cccc(S(=O)(=O)N3CC(N)C3)c12 [Example 26, 3-Amino-1-(4-methyl-5-isoquinolinesulfonyl)azetidine], the IC50 [2] is reported as under 1 µM and the inhibition in vivo at 3000 µM [3] is reported as 5 to 10%.

N[C@@H]1CCN(S(=O)(=O)c2cccc3cncc(Cl)c23)C1 [Example 19-2, (R)-3-Amino-1-(4-chloro-5-isoquinolinesulfonyl)pyrrolidine] was tested, and the IC50 [2] was under 1 µM and the inhibition in vivo at 3000 µM [3] was at least 20%.

CN[C@@H]1CCN(S(=O)(=O)c2cccc3c(O)ncc(Cl)c23)C1 [Example 36-2, (R)-1-(1-Hydroxy-4-chloro-5-isoquinolinesulfonyl)-3-(methylamino)pyrrolidine] was tested, and the IC50 [2] was 1 to 3 µM and the inhibition in vivo at 3000 µM [3] was 10 to 20%.

Work on Cc1cncc2cccc(S(=O)(=O)N3CC[C@H](NCc4cccn4C)C3)c12 [Example 8-21] yielded an IC50 [2] of under 1 µM and an inhibition in vivo at 3000 µM [3] of 10 to 20%.

Cc1nc(CN[C@H]2CCN(S(=O)(=O)c3cccc4cncc(Br)c34)C2)c[nH]1 [Example 1-19] was tested, and the IC50 [2] was 1 to 3 µM and the inhibition in vivo at 3000 µM [3] was 5 to 10%.

For O=S(=O)(c1cccc2cncc(Cl)c12)N1CC[C@H](NCc2ccc3c(c2)OCCO3)C1 [Example 19-40], the IC50 [2] was under 1 µM and the inhibition in vivo at 3000 µM [3] was 5 to 10%.

Compound N[C@H]1CCCN(S(=O)(=O)c2cccc3cncc(Br)c23)C1 [Example 2-1, (S)-3-Amino-1-(4-bromo-5-isoquinolinesulfonyl)piperidine] has an inhibition in vivo at 30 mg/kg [1] of at least 50%.

Compound N[C@@H]1CCN(S(=O)(=O)c2cccc3cncc(Br)c23)C1 [Example 1-2, (R)-3-Amino-1-(4-bromo-5-isoquinolinesulfonyl)pyrrolidine] has an IC50 [2] of under 1 µM and an inhibition in vivo at 3000 µM [3] of at least 20%.

Cc1cncc2cccc(S(=O)(=O)N3CC[C@H](NC4CCC4)C3)c12 [Example 8-28] showed an IC50 [2] of under 1 µM and an inhibition in vivo at 3000 µM [3] of 5 to 10%.

C=CCN[C@H]1CCN(S(=O)(=O)c2cccc3cncc(C)c23)C1 [Example 8-34] gave an IC50 [2] of under 1 µM and an inhibition in vivo at 3000 µM [3] of 5 to 10%.

In the case of NCC(=O)N[C@H]1CCN(S(=O)(=O)c2cccc3cncc(Cl)c23)C1 [Example 58-1, (S)-3-(2-Aminoacetyl)amino-1-(4-chloro-5-isoquinolinesulfonyl)pyrrolidine], the IC50 [2] is reported as 1 to 3 µM and the inhibition in vivo at 3000 µM [3] is reported as at least 20%.

With NCCN[C@H]1CCN(S(=O)(=O)c2cccc3cncc(Cl)c23)C1 [Example 19-32] the IC50 [2] was 1 to 3 µM and the inhibition in vivo at 3000 µM [3] was at least 20%.

Work on NOCC(=O)N[C@H]1CCN(S(=O)(=O)c2cccc3cncc(Cl)c23)C1 [Example 101, (S)-3-[2-(Aminooxy)acetyl]amino-1-(4-chloro-5-isoquinolinesulfonyl)pyrrolidine] yielded an IC50 [2] of under 1 µM and an inhibition in vivo at 3000 µM [3] of at least 20%.

N[C@@H]1CCCN(S(=O)(=O)c2cccc3cncc(Cl)c23)C1 [Example 21-2, (R)-3-Amino-1-(4-chloro-5-isoquinolinesulfonyl)piperidine] gave an IC50 [2] of 1 to 3 µM and an inhibition in vivo at 3000 µM [3] of 10 to 20%.

Cc1cncc2cccc(S(=O)(=O)N3CCC[C@@H](N)C3)c12 [Example 22-2, (R)-3-Amino-1-(4-methyl-5-isoquinolinesulfonyl)piperidine] gave an IC50 [2] of under 1 µM and an inhibition in vivo at 3000 µM [3] of 10 to 20%.

CCN[C@H]1CCN(S(=O)(=O)c2cccc3cncc(C)c23)C1 [Example 8-4] gave an IC50 [2] of under 1 µM and an inhibition in vivo at 3000 µM [3] of 10 to 20%.

Compound CNCC(=O)N[C@H]1CCN(S(=O)(=O)c2cccc3cncc(Cl)c23)C1 [Example 51-1, (S)-3-(2-Methylaminoacetyl)amino-1-(4-chloro-5-isoquinolinesulfonyl)pyrrolidine] has an IC50 [2] of 1 to 3 µM and an inhibition in vivo at 3000 µM [3] of 10 to 20%.

Work on O=C(COc1ccccc1)N[C@H]1CCN(S(=O)(=O)c2cccc3cncc(Cl)c23)C1 [Example 103, (S)-3-(2-Phenoxyacetyl)amino-1-(4-chloro-5-isoquinolinesulfonyl)pyrrolidine] yielded an IC50 [2] of 1 to 3 µM and an inhibition in vivo at 3000 µM [3] of at least 20%.

Cc1cncc2cccc(S(=O)(=O)N3CC[C@H](NC4CCOCC4)C3)c12 [Example 8-31] was tested, and the IC50 [2] was 1 to 3 µM and the inhibition in vivo at 3000 µM [3] was 10 to 20%.

N[C@H]1CCCN(S(=O)(=O)c2cccc3cncc(Cl)c23)C1 [Example 21-1, (S)-3-Amino-1-(4-chloro-5-isoquinolinesulfonyl)piperidine] gave an IC50 [2] of 1 to 3 µM and an inhibition in vivo at 3000 µM [3] of at least 20%.

In the case of Cc1cncc2cccc(S(=O)(=O)N3CC[C@H](NCCc4ccccc4)C3)c12 [Example 8-37], the IC50 [2] is reported as under 1 µM and the inhibition in vivo at 3000 µM [3] is reported as 5 to 10%.
